# Results reported in patent US7718808B2, “Thiazole derivatives” (Kyowa Hakko Kirin Co., Ltd., priority 2003, dated 2010).
row,melting point,Compound
1,199 to 200 °C,"O=C(CN1CCN(c2ncccn2)CC1)Nc1nc(-c2ccco2)c(C(=O)c2ccccn2)s1 [Compound 278, N-[4-(2-Furyl)-5-(pyridin-2-ylcarbonyl)thiazol-2-yl]-2-[4-(2-pyrimidinyl)piperazin-1-yl]acetamide]"
2,172 to 188 °C,"O=C(CN1CCN(C2CCOCC2)CC1)Nc1nc(-c2ccco2)c(C(=O)c2ccccn2)s1 [Compound 279, N-[4-(2-Furyl)-5-(pyridin-2-ylcarbonyl)thiazol-2-yl]-2-[4-(tetrahydropyran-4-yl)piperazin-1-yl]acetamide]"
3,153 to 155 °C,"O=C(CN1CCSC1)Nc1nc(-c2ccco2)c(C(=O)c2ccccn2)s1 [Compound 281, N-[4-(2-Furyl)-5-(pyridin-2-ylcarbonyl)thiazol-2-yl]-2-(1,3-thiazolidin-3-yl)acetamide]"
4,148 to 149 °C,"O=C(CN1CCSCC1)Nc1nc(-c2ccco2)c(C(=O)c2ccccn2)s1 [Compound 282, N-[4-(2-Furyl)-5-(pyridin-2-ylcarbonyl)thiazol-2-yl]-2-thiomorpholinoacetamide]"
5,247 to 250 °C,"COc1cccc(C(=O)c2sc(NC(=O)c3ccncc3)nc2-c2ccco2)n1 [Compound 283, N-[4-(2-Furyl)-5-(6-methoxypyridin-2-ylcarbonyl)thiazol-2-yl]pyridine-4-carboxamide]"
6,238 to 241 °C,"Cc1cccc(C(=O)c2sc(NC(=O)c3ccncc3)nc2-c2ccco2)n1 [Compound 284, N-[4-(2-Furyl)-5-(6-methylpyridin-2-ylcarbonyl)thiazol-2-yl]pyridine-4-carboxamide]"
7,255 to 257 °C,"Cc1ccc(C(=O)c2sc(NC(=O)c3ccncc3)nc2-c2ccco2)nc1 [Compound 294, N-[4-(2-Furyl)-5-(5-methylpyridin-2-ylcarbonyl)thiazol-2-yl]pyridine-4-carboxamide]"
8,240 to 245 °C,"Cc1ccnc(C(=O)c2sc(NC(=O)c3ccncc3)nc2-c2ccco2)c1 [Compound 295, N-[4-(2-Furyl)-5-(4-methylpyridin-2-ylcarbonyl)thiazol-2-yl]pyridine-4-carboxamide]"
9,245 to 248 °C,"O=C(Nc1nc(-c2ccco2)c(C(=O)c2cccnc2)s1)c1ccncc1 [Compound 304, N-[4-(2-Furyl)-5-(pyridin-3-ylcarbonyl)thiazol-2-yl]pyridine-4-carboxamide]"
10,231 to 233 °C,"O=C(c1cccnc1)c1sc(NC(=O)C2CC2)nc1-c1ccco1 [Compound 305, N-[4-(2-Furyl)-5-(pyridin-3-ylcarbonyl)thiazol-2-yl]cyclopropanecarboxamide]"
11,288 to 290 °C,"N#Cc1ccc(C(=O)Nc2nc(-c3ccco3)c(C(=O)c3cccnc3)s2)cc1 [Compound 306, 4-Cyano-N-[4-(2-furyl)-5-(pyridin-3-ylcarbonyl)thiazol-2-yl]benzamide]"
12,234 to 236 °C,"O=C(Nc1nc(-c2ccco2)c(C(=O)c2cccnc2)s1)c1ccco1 [Compound 307, N-[4-(2-Furyl)-5-(pyridin-3-ylcarbonyl)thiazol-2-yl]furan-2-carboxamide]"
13,230 to 234 °C,"Cc1ncccc1C(=O)c1sc(NC(=O)c2ccncc2)nc1-c1ccco1 [Compound 310, N-[4-(2-Furyl)-5-(2-methylpyridin-3-ylcarbonyl)thiazol-2-yl]pyridine-4-carboxamide]"
14,230 to 232 °C (dec.),"Cc1ccc(C(=O)c2sc(NC(=O)c3ccncc3)nc2-c2ccco2)cn1 [Compound 313, N-[4-(2-Furyl)-5-(2-methylpyridin-5-ylcarbonyl)thiazol-2-yl]pyridine-4-carboxamide]"
15,261 to 265 °C,"Cc1ccc(C(=O)c2sc(NC(=O)c3ccc(C#N)cc3)nc2-c2ccco2)cn1 [Compound 314, 4-Cyano-N-[4-(2-furyl)-5-(2-methylpyridin-5-ylcarbonyl)thiazol-2-yl]benzamide]"
16,197 to 209 °C,"Cc1ccc(C(=O)c2sc(NC(=O)c3ccco3)nc2-c2ccco2)cn1 [Compound 315, N-[4-(2-Furyl)-5-(2-methylpyridin-5-ylcarbonyl)thiazol-2-yl]furan-2-carboxamide]"
17,229 to 231 °C,"Cc1ccc(C(=O)c2sc(NC(=O)c3ccoc3)nc2-c2ccco2)cn1 [Compound 316, N-[4-(2-Furyl)-5-(2-methylpyridin-5-ylcarbonyl)thiazol-2-yl]furan-3-carboxamide]"
18,246 to 257 °C (dec.),"COc1ccc(C(=O)c2sc(NC(=O)c3ccncc3)nc2-c2ccco2)cn1 [Compound 319, N-[4-(2-Furyl)-5-(2-methoxypyridin-5-ylcarbonyl)thiazol-2-yl]pyridine-4-carboxamide]"
19,195 to 205 °C,"O=C(Nc1nc(-c2ccco2)c(C(=O)c2ccc(N3CCOCC3)nc2)s1)c1ccncc1 [Compound 324, N-[4-(2-Furyl)-5-(2-morpholinopyridin-5-ylcarbonyl)thiazol-2-yl]pyridine-4-carboxamide]"
20,195 to 205 °C,"CN1CCN(c2ccc(C(=O)c3sc(NC(=O)c4ccncc4)nc3-c3ccco3)cn2)CC1 [Compound 325, N-(4-(2-Furyl)-5-[2-(4-methylpiperazin-1-yl)pyridin-5-ylcarbonyl]thiazol-2-yl)pyridine-4-carboxamide]"

row,melting point,Compound
1,264 to 268 °C,"O=C(Nc1nc(-c2ccco2)c(C(=O)c2ccc(N3CCC(O)CC3)nc2)s1)c1ccncc1 [Compound 326, N-{4-(2-Furyl)-5-[2-(4-hydroxypiperidino)pyridin-5-ylcarbonyl]thiazol-2-yl}pyridine-4-carboxamide]"
2,276 to 285 °C,"O=C(Nc1nc(-c2ccco2)c(C(=O)c2ccncc2)s1)c1ccncc1 [Compound 329, N-[4-(2-Furyl)-5-(pyridin-4-ylcarbonyl)thiazol-2-yl]pyridine-4-carboxamide]"
3,223 to 225 °C,"Cc1cc(C(=O)c2sc(NC(=O)c3ccncc3)nc2-c2ccco2)ccn1 [Compound 332, N-[4-(2-Furyl)-5-(2-methylpyridin-4-ylcarbonyl)thiazol-2-yl]pyridine-4-carboxamide]"
4,205 to 229 °C,"Cc1cc(C(=O)Nc2nc(-c3ccco3)c(C(=O)c3ccnc(C)c3)s2)ccn1 [Compound 333, N-[4-(2-Furyl)-5-(2-methylpyridin-4-ylcarbonyl)thiazol-2-yl]-2-methylpyridine-4-carboxamide]"
5,237 to 239 °C,"COc1cc(C(=O)c2sc(NC(=O)c3ccncc3)nc2-c2ccco2)ccn1 [Compound 336, N-[4-(2-Furyl)-5-(2-methoxypyridin-4-ylcarbonyl)thiazol-2-yl]pyridine-4-carboxamide]"
6,270 to 273 °C,"O=C(Nc1nc(-c2ccco2)c(C(=O)c2ccnc(N3CCOCC3)c2)s1)c1ccncc1 [Compound 339, N-[4-(2-Furyl)-5-(2-morpholinopyridin-4-ylcarbonyl)thiazol-2-yl]pyridine-4-carboxamide]"
7,245 to 248 °C,"O=C(Nc1nc(-c2ccco2)c(C(=O)c2ccco2)s1)c1ccncc1 [Compound 342, N-[4-(2-Furyl)-5-(furan-2-ylcarbonyl)thiazol-2-yl]pyridine-4-carboxamide]"
8,185 to 189 °C,"Cc1ccc(C(=O)c2sc(NC(=O)c3ccncc3)nc2-c2ccco2)o1 [Compound 343, N-[4-(2-Furyl)-5-(5-methylfuran-2-ylcarbonyl)thiazol-2-yl]pyridine-4-carboxamide]"
9,217 to 231 °C,"O=C(Nc1nc(-c2ccco2)c(C(=O)c2ccoc2)s1)c1ccncc1 [Compound 346, N-[4-(2-furyl)-5-(furan-3-ylcarbonyl)thiazol-2-yl]pyridine-4-carboxamide]"
10,208 to 210 °C,"O=C(Nc1nc(-c2ccco2)c(C(=O)c2cccs2)s1)c1ccncc1 [Compound 347, N-[4-(2-Furyl)-5-(thiophen-2-ylcarbonyl)thiazol-2-yl]pyridine-4-carboxamide]"
11,275 to 277 °C (dec.),"Cc1cnc(C(=O)c2sc(NC(=O)c3ccncc3)nc2-c2ccco2)s1 [Compound 349, N-[4-(2-Furyl)-5-(5-methylthiazol-2-ylcarbonyl)thiazol-2-yl]pyridine-4-carboxamide]"
12,250 to 255 °C,"Cc1csc(C(=O)c2sc(NC(=O)c3ccncc3)nc2-c2ccco2)n1 [Compound 350, N-[4-(2-Furyl)-5-(4-methylthiazol-2-ylcarbonyl)thiazol-2-yl]pyridine-4-carboxamide]"
13,270 to 272 °C (dec.),"Cc1nc(C(=O)c2sc(NC(=O)c3ccncc3)nc2-c2ccco2)sc1C [Compound 351, N-[5-(4,5-Dimethylthiazol-2-ylcarbonyl)-4-(2-furyl)thiazol-2-yl]pyridine-4-carboxamide]"
14,209 to 211 °C,"Cn1ccc(C(=O)c2sc(NC(=O)c3ccncc3)nc2-c2ccco2)c1 [Compound 354, N-[4-(2-Furyl)-5-(1-methylpyrrol-3-ylcarbonyl)thiazol-2-yl]pyridine-4-carboxamide]"
15,127 to 134 °C,"CCn1ccc(C(=O)c2sc(NC(=O)c3ccncc3)nc2-c2ccco2)c1 [Compound 355, N-[5-(1-Ethylpyrrol-3-ylcarbonyl)-4-(2-furyl)thiazol-2-yl]pyridine-4-carboxamide]"
16,175 to 178 °C,"O=C(Nc1nc(-c2ccco2)c(C(=O)c2ccn(Cc3ccccc3)c2)s1)c1ccncc1 [Compound 356, N-[5-(1-Benzylpyrrol-3-ylcarbonyl)-4-(2-furyl)thiazol-2-yl]pyridine-4-carboxamide]"
17,294 to 295 °C,"Cn1cc(C(=O)c2sc(NC(=O)c3ccncc3)nc2-c2ccco2)ccc1=O [Compound 360, N-[4-(2-Furyl)-5-(1-methyl-2-oxo-1,2-dihydropyridin-5-ylcarbonyl)thiazol-2-yl]pyridine-4-carboxamide]"
18,295 to 296 °C,"CCn1cc(C(=O)c2sc(NC(=O)c3ccncc3)nc2-c2ccco2)ccc1=O [Compound 362, N-[5-(1-Ethyl-2-oxo-1,2-dihydropyridin-5-ylcarbonyl)-4-(2-furyl)thiazol-2-yl]pyridine-4-carboxamide]"
19,265 to 282 °C (dec.),"O=C(Nc1nc(-c2ccco2)c(C(=O)c2ccc(=O)n(Cc3ccccc3)c2)s1)c1ccncc1 [Compound 364, N-[5-(1-Benzyl-2-oxo-1,2-dihydropyridin-5-ylcarbonyl)-4-(2-furyl)thiazol-2-yl]pyridine-4-carboxamide]"
